Test results from patent US10016486B1, “Methods and compositions using AMPK activators for pharmacological prevention of chronic pain” (ARIZONA BOARD OF REGENTS ON BEHALF OF THE UNIVERSITY OF …, priority 2013, dated 2018).
“Also recorded” adds a separate entry of the source.

Assays:
Male ICR mice [1] = experiment: Plantar incision model: hyperalgesic priming precipitated by intraplantar PGE2 on day 14; format: in vivo
Method: (§1) Behavior testing: For the testing, animals were placed in acrylic boxes with wire mesh floors and allowed to habituate for approximately 1 h on all testing days. Paw withdrawal thresholds were measured using calibrated von Frey filaments (Stoelting, Wood Dale, Ill.) by stimulating the plantar aspect of left hind paw using the up-down method (Chaplan et al., 1994). Plantar incision and behavioral testing: Prior to surgery all animals were assessed for paw withdrawal thresholds. A mouse model of incisional pain was used for this study (Banik et al., 2006). […] Sham controls underwent the same procedure but without the incision. The skin was apposed with 2 sutures of […]. […] The paw withdrawal thresholds were again measured at 1 h, 3 h and 24 h following the PGE2 injection. Statistical Analysis and Data Presentation: Data are shown as means and the standard error of the mean (±SEM) of 6 animals (for behavioral studies). Graph plotting and statistical analysis used Graphpad Prism Version 5.03 (Graph Pad Software, Inc. San Diego, Calif., USA). Statistical evaluation was performed by one- or two-way analysis of variance (ANOVA), followed by appropriate post-hoc tests. The a priori level of significance at 95% confidence level was considered at p<0.05.

[2] = system: neuropathic allodynia induced by peripheral nerve injury; details: previously demonstrated; cited from earlier work
Male ICR mice [3] = experiment: Plantar incision model: acute mechanical hypersensitivity (paw withdrawal thresholds, von Frey filaments); format: in vivo
Method: as §1

[4] = system: translation regulation signaling pathways and nascent protein synthesis in injured nerves neurons; details: previously demonstrated; cited from earlier work
Male ICR mice [5] = experiment: Wound healing and wound closure after plantar incision (H & E staining); details: maximal doses (resveratrol 10 μg intraplantar, metformin 200 mg/kg i.p., OSU53 10 or 30 μg intraplantar); for wound size vs vehicle treated group: Day 3 after plantar incision; for wound closure: Day 7 after plantar incision
Method: Experimental animals: Male ICR mice (Harlan, 20-25 g) were used for the study.
Immunohistochemistry: To determine re-epithelialization, plantar skin was excised from the left hind paw of mice either 3 days or 7 days following plantar incision surgery. The skin was immediately cryoprotected and frozen in O.C.T compound and sectioned (20 μm) on cryostat. The sections were then fixed in formalin and immersed in 0.1% hematoxylin for 3 minutes, washed in tap water, then immersed in 0.1% eosin for 3 minutes, and dehydrated through graded ethanol (Protocol from University of Michigan Center for Organogenesis). Finally sections were coverslipped with Permount (Fisher, Pittsburgh, Pa.). The sections were imaged and the width between 2 epithelial edges was measured using Olympus BX51 microscope.

Male ICR mice [6] = details: local injection of resveratrol into the hind paw following plantar incision; previously demonstrated; cited from earlier work
[7] = general statement; cited from earlier work
[8] = system: ERK and mTOR signaling in sensory neurons; details: time- and concentration-dependent; previously demonstrated; cited from earlier work
Male ICR mice [9] = details: local injection of resveratrol into the hind paw following plantar incision; previously demonstrated; cited from earlier work; remark: listed apart in the source
AMPK = details: independent of upstream kinase LKB1; Lee et al., 2011; read-out: EC50, stimulation of AMPK kinase activity through direct activation; cited from earlier work
[10] = metformin lower doses (30, 100, 150) intra-peritoneal for 4 days starting 2 days prior to surgery
[11] = metformin maximal dose 200 mg/kg intra-peritoneal for 4 days starting 2 days prior to surgery
[12] = OSU53 10 or 30 μg injected locally into the hind paw around the incision

SMILES: CN(C)C(=N)N=C(N)N [metformin]
- plantar incision-induced hyperalgesic priming precipitated by PGE2 (Male ICR mice [1]; metformin 30, 100, 150 or 200 mg/kg intra-peritoneal for 4 days (FIG. 3 legend, all doses together)): significantly blocked
- hyperalgesic priming following PGE2 injection on day 14 (Male ICR mice [1]; [10]): significantly blocked
- hyperalgesic priming following PGE2 injection on day 14 (Male ICR mice [1]; [11]): prevented
- neuropathic allodynia induced by peripheral nerve injury [2]: resolution of neuropathic allodynia
- plantar incision-induced acute hypersensitivity (Male ICR mice [3]; metformin 30, 100, 150 or 200 mg/kg intra-peritoneal for 4 days (FIG. 2 legend, all doses together)): significantly blocked
- plantar incision-induced acute hypersensitivity (Male ICR mice [3]; metformin alone, 150 μg intra-peritoneal for 4 days starting 2 days prior to surgery (sub-efficacious dose)): blunted acute hypersensitivity compared to vehicle treated mice but the effect was not significant
- plantar incision-induced acute mechanical hypersensitivity (Male ICR mice [3]; [10]): not effective
- plantar incision-induced acute mechanical hypersensitivity (Male ICR mice [3]; [11]): prevented
- translation regulation signaling pathways and nascent protein synthesis in injured nerves neurons [4]: inhibited
- wound size vs vehicle treated group (Male ICR mice [5]): No differences
- wound closure (Male ICR mice [5]): completely closed

SMILES: Oc1ccc(C=Cc2cc(O)cc(O)c2)cc1 [resveratrol]
- plantar incision-induced hyperalgesic priming precipitated by PGE2 (Male ICR mice [1]; topical resveratrol 100 μg at the time of incision and 1 day post incision, PGE2 100 ng on day 14): significantly blocked; also recorded: prevented the development of hyperalgesic priming
- plantar incision-induced hyperalgesic priming precipitated by PGE2 (Male ICR mice [1]; topical resveratrol 100 μg once immediately following incision, PGE2 100 ng on day 14): abolished; also recorded: prevented the development of hyperalgesic priming
- plantar incision-induced acute hypersensitivity (Male ICR mice [3]; resveratrol alone, 3 μg injected in hind paw around incision on day of surgery and 24 hrs post-surgery (sub-efficacious dose)): blunted acute hypersensitivity compared to vehicle treated mice but the effect was not significant
- plantar incision-induced acute mechanical hypersensitivity (Male ICR mice [3]; topical resveratrol cream (2 mg/ml in PEG), 100 μg, applied once immediately following incision, vs vehicle): blunted; also recorded: blunted hypersensitivity though not significant
- plantar incision-induced acute mechanical hypersensitivity (Male ICR mice [3]; topical resveratrol cream, 100 μg, applied twice: immediately following incision and 24 hrs following incision, vs vehicle): significantly blocked; also recorded: significantly attenuated
- incision-mediated mechanical hypersensitivity (Male ICR mice [6]): attenuates; also recorded: dose-relatedly reverses
- bioavailability [7]: lacks bioavailability
- ERK and mTOR signaling in sensory neurons [8]: profoundly inhibits
- hyperalgesic priming induced by incision (Male ICR mice [9]): attenuates; also recorded: dose-relatedly reverses
- wound size vs vehicle treated group (Male ICR mice [5]): no differences
- wound closure (Male ICR mice [5]): completely closed

SMILES: N#Cc1c(O)c2c(-c3ccc(-c4ccccc4O)cc3)csc2[nH]c1=O [A-769662]
- hyperalgesic priming following PGE2 injection on day 14 (Male ICR mice [1]; A-769662 30 mg/kg intra-peritoneal for 4 days starting 2 days prior to surgery): significantly blocked
- neuropathic allodynia induced by peripheral nerve injury [2]: resolution of neuropathic allodynia
- plantar incision-induced acute mechanical hypersensitivity (Male ICR mice [3]; A-769662 30 mg/kg intra-peritoneal for 4 days starting 2 days prior to surgery, 30 mg/kg): did not block; also recorded: not effective
- translation regulation signaling pathways and nascent protein synthesis in injured nerves neurons [4]: inhibited

SMILES: CC1(CN2C(=O)S/C(=C\c3ccc(NS(=O)(=O)c4ccc([N+](=O)[O-])c(C(F)(F)F)c4)cc3)C2=O)CCCCC1 [OSU53]
- hyperalgesic priming after PGE2 injection on day 14 (Male ICR mice [1]; [12]): significantly blocked; also recorded: dose-relatedly blocked
- plantar incision-induced acute mechanical hypersensitivity (Male ICR mice [3]; [12]): significantly blocked; also recorded: dose-relatedly blocked
- EC50 (AMPK): 300 nM
